Experimental data reported in patent US20170209579A1, “NON-INVASIVE RADIOFREQUENCY FIELD TREATMENT FOR CANCER THERAPY” (Baylor College of Medicine, priority 2014, published 2017).

Key:
[1] = system: orthotopic pancreatic tumors (KPC pancreatic adenocarcinoma cells); test: Gemcitabine uptake into orthotopic KPC pancreatic tumors with and without RF (LC-MS); type: in vivo, mouse; details: 70 mg/Kg systemic injection, sacrificed 5 hours later, RF until 41° C.
Description: FIGS. 11A-11E illustrate an example of an embodiment of the use RF energy to enhance the uptake of chemotherapy drugs into tumors compared to using chemotherapy drugs alone. (11A) Female Nude mice (4-6 weeks old) were given direct injections of KPC pancreatic adenocarcinoma cells (1×10^6) into the pancreas. After 1-2 weeks (enough time for a orthotopic pancreatic tumor to form) the mice were subjected to RF exposure under a ramped power treatment protocol as shown in the table. (11B) Graph of a typical RF power and resulting temperature versus time plot for a single mouse being exposed to RF energy. The surface temperature of the mouse in close proximity to the pancreas was recorded using an IR camera. The RF exposure was turned off once the temperature reached 41° C. […] Quantification of Gemcitabine was analyzed using Liquid Chromatography Mass Spectroscopy (LC-MS). (11E) Quantification of the levels of Gemcitabine in the orthotopic pancreatic tumors of mice with and without RF exposure. […]
FIGS. 11A-11E illustrate an example of an embodiment of the use RF energy to enhance the uptake of chemotherapy drugs into tumors compared to using chemotherapy drugs alone. […] The surface temperature of the mouse in close proximity to the pancreas was recorded using an IR camera. […] Quantification of Gemcitabine was analyzed using Liquid Chromatography Mass Spectroscopy (LC-MS). […]

SNU449 cells = test: Clonogenic assay, SNU449 cells; type: cell-based, human; details: irrespective of dose schedule
Method: Clonogenic assay estimates single-cell reproductive viability by measuring the ability of a single cell to form a colony of 50 cells or more. Clonogenic assay in this study was performed as described previously (Franken et al., 2006). Briefly, cancer cells from an exponentially growing, sub-confluent culture were trypsinized and harvested. Approximately 200 cells were counted and plated in each well of a 6-well plate. Approximately 12 hours later, the cells were adherent and treatment conditions were introduced as described herein. After varying treatments, media was replaced and cells were allowed 14 days to form colonies. Subsequently, the media was aspirated and cells were washed with PBS once. Colonies were then fixed with glutaraldehyde (6.0% v/v) and stained with crystal violet (0.5% w/v) for 30 minutes on a leveled shaker at 50 RPM. The fixation and staining solution was then aspirated and the 6-well plates were air-dried after gentle rinsing with tap water. The number of colonies in each well was counted using a colony counting grid. […]
Clonogenic assays were performed on Hep3B cells and SNU449 cells after one of two combinations of hyperthermia and gemcitabine compared with hyperthermia or gemcitabine alone. […] Next, clonogenic viability was evaluated at a gemcitabine concentration of 5 ng/ml and varied the duration of hyperthermia (30 minutes to 4 hours).

## Nc1ccn([C@@H]2O[C@H](CO)[C@@H](O)C2(F)F)c(=O)n1 [gemcitabine, 2′,2′-difluoro 2′-deoxycytidine]
[1]
  Gemcitabine present in tumors, RF-treated mice versus control group: approximately 4 ×
SNU449 cells
  clonogenic survival, gemcitabine combined with hyperthermia: dose-dependent enhancement of gemcitabine toxicity
